{"source": "paper PMC7384767", "about": "(Journal of natural products, 2020)", "test_system": "M. tuberculosis H37Rv", "test": "Microplate Alamar Blue assay", "assay_type": "cell-based", "conditions": "result in words", "data": [{"smiles": "C=CC(C)(C)n1cc(C[C@@H]2NC(=O)[C@H](CC(C)C)N(C)C2=O)c2ccccc21", "note": "[Compound 9, rufomyazine]", "values": [{"measurement": "anti-TB activity", "result": "did not show anti-TB activity"}]}]}
